We go through eleven molecules from patent US8629164B2, “Inhibitors of NF-κB” (Profectus Biosciences, Inc., priority 2009, dated 2014).

Structures can show the parent of a compound that is named as a salt.

The subject of assay [1] is NF-κB. Put plainly: 293-cell pNF-κB-luc reporter assay, TNF-α induced. The assay is classed as cell-based. Particulars: HEK293 cells, NF-κB driven luciferase expression, read-out: 293/NFkB-luc EC50. How it is done:
(§1) Inhibition of NF-κB in cells by the compound of Example 1. Two reporter cell assays were used to determine the ability of the compound of Example 1 to inhibit NE-KB driven transcription. The first assay was a 293-cell based assay with a stably integrated pNF-κB-luc reporter plasmid containing 3 NF-κB promoter elements. The second assay was a 293-cell based assay with a stably integrated pTRH1-NF-κB-dscGFP reporter containing 4 NF-κB promoter elements. Cells were treated with 0, 0.2, 1, 10, 20 and 40 μM of the compound of Example 1 for 2 hours then were induced with 20 ng/ml TNF-α for 18 hours. Following the induction, luminescence or fluorescence was quantified using a Beckman-Coulter 2300 plate reader. […] These values represent the median value generated from three independent experiments±the standard error. As a control, 0.5% DMSO treated and untreated cells were compared to verify that the Example 1 carrier had no effect on the expression of luciferase or in the readout of the assay. There was a slight decrease in the output from the assay in the DMSO treated population although it was not statistically significant. As a result of the controls, the decrease in activity in the drug treated samples was compared to the DMSO control sample.
In general terms: In a reporter assay the amount or activity of a reporter protein is the signal.

The subject of assay [2] is NF-κB. Put plainly: 293-cell pTRH1-NF-κB-dscGFP reporter assay, TNF-α induced. The assay is classed as cell-based. The note with it: NF-κB driven GFP expression, read-out: NF-kB/293/GFP EC50. As to the method:
as §1

Assay [3] has as its system IL-6 release from RAW264.7 cells. The assay can be described thus: IL-6 release from LPS stimulated RAW264.7 cells. It is filed as cell-based, mouse. As to the method:
Specifically, A and B show the effects of the compound of Example 1 on soluble PGE2 and Il-6 secretion from RAW264.7 cells stimulated by 1 μg/mL of LPS. The cells were treated with the indicated concentrations of the compound of Example 1 for 2 hours, and then LPS was added and incubation continued for 4 hours. […]

The target in a further assay is p65 (RelA) (Homo sapiens, UniProt Q04206). The assay can be described thus: TransAM NF-κB Family DNA Binding ELISA, p65. Particulars: p65 binding IC50 (uM), binding to NF-κB sites.
Chain of p65 (RelA) (Q04206 whole entry): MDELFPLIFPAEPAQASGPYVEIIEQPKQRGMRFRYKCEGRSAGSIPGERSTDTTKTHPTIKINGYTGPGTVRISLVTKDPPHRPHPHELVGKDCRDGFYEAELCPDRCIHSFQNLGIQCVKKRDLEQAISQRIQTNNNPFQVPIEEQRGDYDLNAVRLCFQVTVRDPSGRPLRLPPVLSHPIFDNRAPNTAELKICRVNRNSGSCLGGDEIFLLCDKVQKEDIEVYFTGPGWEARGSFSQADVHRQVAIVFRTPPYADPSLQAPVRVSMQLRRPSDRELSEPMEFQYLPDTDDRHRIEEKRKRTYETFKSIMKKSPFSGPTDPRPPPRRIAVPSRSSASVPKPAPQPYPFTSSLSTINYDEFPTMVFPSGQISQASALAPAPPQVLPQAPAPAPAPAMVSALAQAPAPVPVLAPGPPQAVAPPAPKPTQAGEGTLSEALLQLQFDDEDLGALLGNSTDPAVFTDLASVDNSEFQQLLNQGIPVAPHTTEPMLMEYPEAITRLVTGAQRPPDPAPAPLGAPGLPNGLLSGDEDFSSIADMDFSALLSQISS
A further assay addresses T1, p52 (Homo sapiens, UniProt Q00653).
T1 sequence (Q00653 1-454 limits assumed): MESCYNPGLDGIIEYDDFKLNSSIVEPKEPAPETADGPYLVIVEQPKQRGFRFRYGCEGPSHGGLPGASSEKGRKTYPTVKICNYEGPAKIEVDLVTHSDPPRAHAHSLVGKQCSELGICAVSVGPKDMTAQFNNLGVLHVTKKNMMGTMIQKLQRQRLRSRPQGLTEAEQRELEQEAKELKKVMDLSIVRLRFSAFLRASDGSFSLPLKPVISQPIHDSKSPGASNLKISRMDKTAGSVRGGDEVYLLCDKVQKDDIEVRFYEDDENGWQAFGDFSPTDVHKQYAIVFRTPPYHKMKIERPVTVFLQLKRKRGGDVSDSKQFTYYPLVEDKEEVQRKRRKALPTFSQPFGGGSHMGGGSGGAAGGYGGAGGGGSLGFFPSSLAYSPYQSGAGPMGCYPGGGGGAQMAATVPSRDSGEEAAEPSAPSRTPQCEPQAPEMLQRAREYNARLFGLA
Put plainly: TransAM NF-κB Family DNA Binding ELISA, p52. The note with it: for IC50: p52 binding IC50 (uM), cells without % sign.

The next assay deals with T2, RelB (Homo sapiens, UniProt Q01201).
T2 sequence (Q01201 1-579): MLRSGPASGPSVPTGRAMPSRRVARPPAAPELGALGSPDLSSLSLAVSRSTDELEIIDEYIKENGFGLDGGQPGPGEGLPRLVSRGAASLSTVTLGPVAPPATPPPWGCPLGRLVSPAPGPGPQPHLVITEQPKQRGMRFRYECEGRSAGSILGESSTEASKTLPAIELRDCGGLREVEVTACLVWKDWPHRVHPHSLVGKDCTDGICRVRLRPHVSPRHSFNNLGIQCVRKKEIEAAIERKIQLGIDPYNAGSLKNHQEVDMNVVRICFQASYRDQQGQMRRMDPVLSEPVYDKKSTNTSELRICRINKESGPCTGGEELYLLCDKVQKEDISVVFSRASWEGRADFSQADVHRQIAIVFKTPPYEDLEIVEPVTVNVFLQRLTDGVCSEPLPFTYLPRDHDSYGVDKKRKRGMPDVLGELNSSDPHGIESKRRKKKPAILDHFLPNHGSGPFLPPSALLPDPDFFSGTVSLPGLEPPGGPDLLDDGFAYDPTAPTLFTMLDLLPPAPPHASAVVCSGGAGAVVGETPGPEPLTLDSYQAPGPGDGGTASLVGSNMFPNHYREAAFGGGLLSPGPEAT
T2 sequence (Q00653 1-454 partner limits assumed): T1 sequence (Q00653 1-454 limits assumed)
The assay can be described thus: TransAM NF-κB Family DNA Binding ELISA, RelB. The note with it: at 5 uM. A general note: ELISA stands for enzyme-linked immunosorbent assay.

A further assay has as its target T3, c-Rel (Homo sapiens, UniProt Q04864).
T3 sequence (Q04864 2-619 limits assumed): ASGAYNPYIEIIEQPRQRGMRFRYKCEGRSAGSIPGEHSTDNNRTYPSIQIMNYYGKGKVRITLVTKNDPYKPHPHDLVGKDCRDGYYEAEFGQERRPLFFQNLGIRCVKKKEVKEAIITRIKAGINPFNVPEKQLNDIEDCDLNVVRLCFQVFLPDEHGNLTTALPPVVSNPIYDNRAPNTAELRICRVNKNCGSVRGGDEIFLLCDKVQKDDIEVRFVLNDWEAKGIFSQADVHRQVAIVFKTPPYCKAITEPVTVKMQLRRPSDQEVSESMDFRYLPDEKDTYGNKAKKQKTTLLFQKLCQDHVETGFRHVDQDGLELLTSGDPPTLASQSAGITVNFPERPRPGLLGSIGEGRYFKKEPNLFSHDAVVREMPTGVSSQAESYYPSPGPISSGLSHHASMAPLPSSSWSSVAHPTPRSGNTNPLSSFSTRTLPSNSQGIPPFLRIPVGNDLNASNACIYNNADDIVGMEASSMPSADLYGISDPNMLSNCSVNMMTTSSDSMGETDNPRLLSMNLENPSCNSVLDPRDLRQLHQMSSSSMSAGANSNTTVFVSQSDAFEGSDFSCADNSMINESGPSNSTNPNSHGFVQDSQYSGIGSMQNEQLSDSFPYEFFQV
Put plainly: TransAM NF-κB Family DNA Binding ELISA, c-Rel. Particulars: at 5 uM.

The target of another assay is T4, p50 (Homo sapiens, UniProt P19838).
T4 sequence (P19838 1-433 limits assumed): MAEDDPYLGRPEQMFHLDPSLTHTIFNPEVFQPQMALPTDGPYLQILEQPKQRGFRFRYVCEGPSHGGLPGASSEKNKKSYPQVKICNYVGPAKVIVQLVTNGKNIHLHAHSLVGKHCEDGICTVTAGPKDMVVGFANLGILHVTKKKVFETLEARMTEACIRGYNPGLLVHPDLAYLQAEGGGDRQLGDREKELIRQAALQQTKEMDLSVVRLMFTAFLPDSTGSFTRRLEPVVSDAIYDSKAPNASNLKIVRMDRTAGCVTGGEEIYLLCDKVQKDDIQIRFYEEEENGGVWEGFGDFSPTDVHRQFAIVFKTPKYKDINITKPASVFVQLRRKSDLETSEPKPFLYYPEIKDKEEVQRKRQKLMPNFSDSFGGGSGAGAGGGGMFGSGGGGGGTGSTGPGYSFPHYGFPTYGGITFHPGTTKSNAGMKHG
The assay can be described thus: TransAM NF-κB Family DNA Binding ELISA, p50. The note with it: p50 binding IC50 (uM), cells without % sign.

[4] abbreviates: Homo sapiens, HEK293, HEK293 cells.
Where [5] appears, read: Mus musculus, RAW264.7, RAW 264.7 cells.
The mark [6] stands for this setting: RAW 264.7 cells, trifluoroacetate.

Method for RelB: (§2) Treated samples were then transferred to 30 μL Complete Binding Buffer (with DTT) in microplate wells pre-coated with the NF-κB consensus oligonucleotide. […] The plate was incubated for 1 hour at room temperature with gentle shaking and then washed 3 times with 200 μL 1× Wash Buffer. NF-κB p65, p50, p52, RelB, or c-Rel subunits bound to the plate were detected with 100 μL of the primary antibody (diluted 1:1000 in 1× Antibody Buffer) specific for that subunit. The plate was incubated for 1 hour at room temperature and then washed 3 times with 200 μL 1× Wash Buffer. Next, 100 μL of a HRP conjugated goat anti-rabbit antibody (diluted 1:1,000 in 1× Antibody Buffer) was added to each well. The plate was incubated for 1 hour at room temperature and then washed 4 times with 200 μL 1× Wash Buffer. 100 μL of room temperature Developing Solution was added to each well. The reaction was allowed to develop for 2-10 minutes until a medium dark blue color developed (depending on the subunit activity in the lot of extract or lot of recombinant protein used) and then the reaction was stopped with 100 μL Stop Solution yielding a yellow color. Absorbance was recorded using a Becton-Dickinson DTX 880 Multimode Detector at 450 nm with a reference wavelength subtracted at 620 nm.
Method for c-Rel: as §2
Method for p52: as §2

The term IC50 denotes the concentration needed to halve the response being measured. Lower therefore signals higher potency. On to `Cc1ncc(C(=O)NC2=CC(=O)C3OC3C2O)c(O)n1` (racemic) [Example 24, (±)-4-hydroxy-2-methyl-pyrimidine-5-carboxylic acid (2-hydroxy-5-oxo-7-oxa-bicyclo[4.1.0]hept-3-en-3-yl)-amide], for which the values for the EC50 (with NF-κB [1]; with NF-κB [2] (setting [4]); in assay [3] (setting [5])) were more than 48 µM, more than 48 µM and 27.1 µM, respectively. Further, the IC50 at p65 (RelA) worked out at 2.3 µM.

For the molecule `COc1cccnc1C(=O)NC1=CC(=O)C2OC2C1O` (racemic) [Example 22, (±)-3-methoxy-pyridine-2-carboxylic acid (2-hydroxy-5-oxo-7-oxa-bicyclo[4.1.0]hept-3-en-3-yl)-amide trifluoroacetate], the EC50 (in the assay on NF-κB [1] (trifluoroacetate); in assay [3] (setting [6])) was more than 34 µM throughout. On p65 (RelA), this molecule registered an IC50 of 13.2 µM.

Turning to `CS(=O)(=O)O.O=C(NC1=CC(=O)C2OC2C1O)c1ncccc1O` (racemic) [Example 12, (±)-3-hydroxy-N-(2-hydroxy-5-oxo-7-oxabicyclo[4.1.0]hept-3-en-3-yl)picolinamide, mesylate], the EC50 was determined as 22 µM in the assay on NF-κB [1] (mesylate) and 2.5 µM in assay [3] (RAW 264.7 cells, mesylate). Also, the “p52 binding % inhibit. at 5 uM” value at p52 (at 5 uM) was found to be 14%. Moreover, the “RelB binding % inhibit. at 5 uM” value at RelB is 6%. The “c-Rel binding % inhibit. at 5 uM” value on c-Rel was 7%.

With `COc1cc2ccccc2nc1C(=O)NC1=CC(=O)C2OC2C1O` (racemic) [Example 31, (±)-N-(2-hydroxy-5-oxo-7-oxabicyclo[4.1.0]hept-3-en-3-yl)-3-methoxyquinoline-2-carboxamide], the EC50 in the assay with NF-κB [1] stood at 3.9 µM; in the assay with NF-κB [2] (setting [4]), 5.6 µM; in assay [3] (setting [5]) it was 1 µM. Besides, the IC50 on p65 (RelA) is 38 µM; at p50, 28 µM; at p52, 21 µM.

For `O=C(NC1=CC(=O)C2OC2C1O)c1ccc(C(F)(F)F)nc1O` (racemic) [Example 23, (±)-2-hydroxy-N-(2-hydroxy-5-oxo-7-oxa-bicyclo[4.1.0]hept-3-en-3-yl)-6-trifluoromethyl-nicotinamide], the EC50 in the assay on NF-κB [1] is more than 40 µM; in the assay on NF-κB [2] (setting [4]), more than 40 µM; in assay [3] (setting [5]), 24.8 µM. The molecule further yielded an IC50 on p65 (RelA) of 6.4 µM.

For the molecule `O=C(NC1=CC(=O)C2OC2C1=O)c1ccncc1O` (racemic) [Example 34, (±)-N-(2,5-dioxo-7-oxabicyclo[4.1.0]hept-3-en-3-yl)-3-hydroxyisonicotinamide], the EC50 in the assay with NF-κB [1] was more than 51 µM; with NF-κB [2] (setting [4]), 39 µM; in assay [3] (setting [5]), 42 µM. The results for the IC50 at p65 (RelA), at p50 and on p52 were 12 µM, 90 µM and 96 µM, respectively.

As for `COc1c(C(=O)NC2=CC(=O)C3OC3C2O)ccc2cccnc12` (racemic) [Example 33, (±)-N-(2-hydroxy-5-oxo-7-oxabicyclo[4.1.0]hept-3-en-3-yl)-8-methoxyquinoline-7-carboxamide trifluoroacetate], the EC50 came out at 0.53 µM in the assay with NF-κB [1] (trifluoroacetate); 2 µM in the assay on NF-κB [2] (HEK293 cells, trifluoroacetate); 0.26 µM in assay [3] (setting [6]). Also, the IC50 was 4.8 µM on p65 (RelA), more than 378 µM on p50 and more than 378 µM on p52.

For `O=C(NC1=CC(=O)C2OC2C1O)c1nc(Cl)c2ccccc2c1O` (racemic) [Example 27, (±)-1-chloro-4-hydroxy-isoquinoline-3-carboxylic acid (2-hydroxy-5-oxo-7-oxa-bicyclo[4.1.0]hept-3-en-3-yl)-amide], the EC50 in the assay with NF-κB [1] was 9.7 µM; in the assay on NF-κB [2] (setting [4]) it was 6.7 µM; in assay [3] (setting [5]), 0.71 µM. This molecule also registered an IC50 at p65 (RelA) of 30 µM.

For the molecule `COc1ncccc1C(=O)NC1=CC(=O)C2OC2C1=O` (racemic) [Example 30, (±)-N-(2,5-Dioxo-7-oxa-bicyclo[4.1.0]hept-3-en-3-yl)-2-methoxy-nicotinamide], the values for the EC50 (with NF-κB [1]; with NF-κB [2] (setting [4]); in assay [3] (setting [5])) were 2.7 µM, 4.3 µM and 0.76 µM, respectively. Besides, the IC50 at p65 (RelA) is 36 µM; on p50 it was more than 608 µM; on p52, more than 608 µM.

In the case of `COc1nc2ccccc2cc1C(=O)NC1=CC(=O)C2OC2C1=O` (racemic) [Example 35, (±)-N-(2,5-dioxo-7-oxabicyclo[4.1.0]hept-3-en-3-yl)-2-methoxyquinoline-3-carboxamide], the EC50 is 3.1 µM in the assay with NF-κB [1], 5.3 µM with NF-κB [2] (setting [4]) and 0.44 µM in assay [3] (setting [5]). Moreover, the IC50 at p65 (RelA) was found to be 50 µM; on p50, 148 µM; at p52, 81 µM.

On to `COc1c(C(=O)NC2=CC(=O)C3OC3C2=O)ccc2cccnc12` (racemic) [Example 32, (±)-N-(2,5-diose-7-oxabicyclo[4.1.0]hept-3-en-3-yl)-8-methoxyquinoline-7-carboxamide], for which the results for the EC50 (with NF-κB [1]; with NF-κB [2] (setting [4]); in assay [3] (setting [5])) were 3.4 µM, 3 µM and 0.24 µM, respectively. The IC50 at p65 (RelA) is 30 µM; at p50, more than 514 µM; on p52, more than 514 µM.
